Common to all, as to format: cell-based
Experiment [1] concerns the target T1, Human GPR54 receptor (Homo sapiens, UniProt Q969F8, L364H).
T1 construct: Clones containing full-length GPR54 were thus identified; expressed in transfected cells
Nature of the experiment: aequorin assay in HEK293/aeq17 cells expressing human GPR54. Particulars: aequorin luminescence, 5-fold serial dilutions, triplicates. As to the method: The HEK293/aeq17 cell line was licensed in from NIH (Button and Brownstein, 1993, Cell Calcium, 14:663-671). The cells were grown in Dulbecco's Modified Medium (MEM, GIBCO-BRL, Gaithersburg, Md., USA)+10% fetal bovine serum (heat inactivated), 1 mM sodium pyruvate, 500 ug/ml Geneticin, 100 ug/ml streptomycin, 100 units/ml penicillin. […] Puromycin-resistant clones were selected and bulk stables were used for further analysis.
For the aequorin assay, cell were washed once with DMEM+0.1% fetal bovine serum, and then charged for one hour at 37° C. 15% CO2 in DMEM containing 8 uM coelenterazine cp (Molecular Probes, Eugene, Oreg., USA) and 30 uM glutathione. […] The cell density was determined by counting with a hemacytometer and adjusted to 500,000 cells/ml in ECB.
The neuropeptides were diluted in ECB into 2× concentrates using 5-fold serial dilutions, and aliquoted into assay plates in triplicates at 0.1 ml/well. The cell suspension was injected at 0.1 ml/well, read and integrated for a total of 400 readings using a luminometer (Luminoskan Ascent, Labsystems Oy, Helsinki, Finland). Data was analyzed using the software GraphPad Prism Version 3.0 (GraphPad Software, Inc., San Diego, Calif., USA).

Experiment [2] has as its target T2, rat GPR54 (Rattus norvegicus, UniProt Q924U1).
T2 construct: expressed in transfected cells
Nature of the experiment: β-lactamase reporter enzyme assay in CHO-NPAT-bla cells expressing rat GPR54. As to the method:
The full-length coding sequence of rat GPR54 was sub-cloned into the expression vector pIRESpuromycin (Clontech, Palo Alto, Calif., USA) in accordance with the manufactures directions. This GPR54 plasmid was transfected into Aurora's CHO-NPAT-bla cells using the reagent Lipofectamine 2000 (GIBCO-BRL, Gaithersburg, Md., USA). Puromycin-resistant bulk stables expressing rat GPR54 were selected and used for screening for agonist.
β-lactamase assays were carried as described by (Zlokarnik et al., 1998, Quantitation of transcription and clonal selection of single living cells with beta-lactamase as reporter. Science 1998, 279:84-88). All peptides were from Phoenix Pharmaceuticals. […] Four (4) hours after the addition of ligands, cells were loaded with dye and measured for fluorescence approximately 45 minutes later.
An extremely sensitive transcription-based assay is disclosed in Zlokarnik et al., 1998, Science 279:84-88 (Zlokarnik) and also in U.S. Pat. No. 5,741,657, both of which are incorporated by reference in their entirety herein. […] This increase in β-lactamase is measured by treating the cells with a cell-permeable dye that is a substrate for cleavage by β-lactamase. […] In the intact dye, the two fluorescent moieties are physically linked, and thus close enough to one another that fluorescence resonance energy transfer FRET) can take place between them. […]

Experiment [3] has as its system Control cells (cells that do not express rat GPR54). Nature of the experiment: β-lactamase reporter assay in control cells. Particulars: data not shown. As to the method: β-lactamase assays were carried as described by (Zlokarnik et al., 1998, Quantitation of transcription and clonal selection of single living cells with beta-lactamase as reporter. Science 1998, 279:84-88). All peptides were from Phoenix Pharmaceuticals. Cells were seeded two days prior to assay. The day before being assayed, cells were changed to serum-free media. Four (4) hours after the addition of ligands, cells were loaded with dye and measured for fluorescence approximately 45 minutes later.
These peptides were then individually tested against GPR54-expressing cells.
On the technique in general: Reporter assays use an easily measured gene product as a stand-in for the process of interest.

T1 sequence (Q969F8 whole entry L364H): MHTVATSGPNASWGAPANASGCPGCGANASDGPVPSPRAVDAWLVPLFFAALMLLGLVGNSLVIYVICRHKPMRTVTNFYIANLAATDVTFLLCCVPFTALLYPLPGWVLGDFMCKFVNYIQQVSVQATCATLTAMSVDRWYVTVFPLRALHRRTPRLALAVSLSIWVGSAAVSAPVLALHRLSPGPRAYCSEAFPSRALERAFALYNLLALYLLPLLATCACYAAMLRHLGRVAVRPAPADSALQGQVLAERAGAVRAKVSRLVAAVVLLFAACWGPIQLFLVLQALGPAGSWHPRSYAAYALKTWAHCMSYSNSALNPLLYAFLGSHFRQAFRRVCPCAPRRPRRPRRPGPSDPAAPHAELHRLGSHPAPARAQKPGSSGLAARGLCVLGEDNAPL
T2 sequence (Q924U1 whole entry): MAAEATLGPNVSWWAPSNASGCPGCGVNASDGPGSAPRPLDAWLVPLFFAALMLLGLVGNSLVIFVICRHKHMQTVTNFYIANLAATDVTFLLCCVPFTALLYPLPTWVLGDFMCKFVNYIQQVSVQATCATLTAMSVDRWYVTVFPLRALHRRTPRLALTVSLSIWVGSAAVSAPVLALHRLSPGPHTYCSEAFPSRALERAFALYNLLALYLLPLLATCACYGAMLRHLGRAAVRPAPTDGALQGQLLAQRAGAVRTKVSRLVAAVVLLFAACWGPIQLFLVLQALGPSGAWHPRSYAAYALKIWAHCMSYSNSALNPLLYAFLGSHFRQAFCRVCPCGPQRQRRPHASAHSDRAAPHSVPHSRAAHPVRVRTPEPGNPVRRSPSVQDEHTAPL

Regarding antho-RW amide II, the “response of cells expressing Human GPR54 receptor (FIG. 9)” value in experiment [1] is “robust, dose-dependent response”.

For antho-RWamide I, in experiment [2] (peptides individually tested against GPR54-expressing cells), the “dose-response activation of rat GPR54 (FIG. 8)” value is recorded as “activated rat GPR54 in a dose-dependent manner”. The “activation of rat GPR54 in the primary screening” value in experiment [2] (primary agonist screening, cells expressing rat GPR54, β-lactamase readout 4 hours after ligand addition) is “activate rat GPR54 specifically”. Besides, in experiment [3], the “response of control cells” value is given as “no response”. The “response of cells expressing Human GPR54 receptor (FIG. 9)” value in experiment [1] is given as “robust, dose-dependent response”.

Source of the values: patent publication US20050075494A1, “Isolated nucleic acid molecules encoding a human and mouse g protein-coupled receptor-gpr54: encoded proteins, cells transformed therewith and uses thereof” (priority 2000, published 2005).
